{
  "source": "paper PMC8608967",
  "about": "“KDS2010, a Newly Developed Reversible MAO-B Inhibitor, as an Effective Therapeutic Candidate for Parkinson’s Disease” (Neurotherapeutics, 2021)",
  "key": {"[1]": {"target": "T1, human recombinant MAO-B (hMAO-B) (Homo sapiens, UniProt P27338)", "T1 construct": "purchased Sigma Aldrich", "T1 sequence (P27338 1-520)": "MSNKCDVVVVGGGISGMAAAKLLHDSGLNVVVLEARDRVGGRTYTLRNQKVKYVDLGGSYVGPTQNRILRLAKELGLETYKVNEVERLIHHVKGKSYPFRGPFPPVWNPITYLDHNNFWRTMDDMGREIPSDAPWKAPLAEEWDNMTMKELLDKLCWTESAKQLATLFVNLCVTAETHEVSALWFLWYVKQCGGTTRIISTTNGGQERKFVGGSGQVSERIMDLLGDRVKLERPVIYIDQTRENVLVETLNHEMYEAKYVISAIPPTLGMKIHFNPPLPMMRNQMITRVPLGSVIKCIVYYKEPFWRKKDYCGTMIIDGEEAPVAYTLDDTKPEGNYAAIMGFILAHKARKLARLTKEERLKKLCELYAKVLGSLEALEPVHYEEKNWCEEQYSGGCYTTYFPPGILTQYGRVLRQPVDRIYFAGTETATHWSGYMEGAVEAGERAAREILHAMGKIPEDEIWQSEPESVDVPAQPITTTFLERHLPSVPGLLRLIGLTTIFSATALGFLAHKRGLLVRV", "settings": "selectivity for MAO-B isoform; ref Park, JH. et al. Science Advances. 5(3), eaav0136 (2019); cited from earlier work"}, "[2]": {"target": "T2, human recombinant MAO-A (hMAO-A) (Homo sapiens, UniProt P21397)", "T2 construct": "purchased Sigma Aldrich", "T2 sequence (P21397 1-527)": "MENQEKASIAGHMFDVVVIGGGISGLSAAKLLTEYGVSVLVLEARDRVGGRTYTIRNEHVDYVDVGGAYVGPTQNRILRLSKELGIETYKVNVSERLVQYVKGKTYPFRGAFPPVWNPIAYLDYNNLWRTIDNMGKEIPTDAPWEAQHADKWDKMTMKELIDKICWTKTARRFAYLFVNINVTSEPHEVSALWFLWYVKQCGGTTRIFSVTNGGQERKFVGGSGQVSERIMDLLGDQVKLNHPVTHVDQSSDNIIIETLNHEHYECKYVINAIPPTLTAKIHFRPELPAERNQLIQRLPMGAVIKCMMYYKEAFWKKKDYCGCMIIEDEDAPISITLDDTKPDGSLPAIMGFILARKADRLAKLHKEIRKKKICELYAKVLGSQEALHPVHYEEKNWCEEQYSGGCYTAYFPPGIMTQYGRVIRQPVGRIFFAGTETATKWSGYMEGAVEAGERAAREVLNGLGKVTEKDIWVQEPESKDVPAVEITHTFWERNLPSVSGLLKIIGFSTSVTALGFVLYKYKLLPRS", "settings": "ref Park, JH. et al. Science Advances. 5(3), eaav0136 (2019), read-out: Inhibition (IC50) MAO-A; cited from earlier work"}, "[3]": {"test_system": "MPTP-induced PD mouse model", "test": "MPTP mouse model: vertical grid test and coat hanger test", "type": "in vivo", "settings": "MPTP mice; long-term (30-day) treatment, 10 mg/kg/day oral", "procedure": "Group allocation and outcome assessment, but not the conduct of experiments and data analysis, were performed in a blinded manner. Throughout the study, confounders were not controlled. An acclimation period of 7 days was allowed for animals to stabilize in a new environment before model induction. […] Treatment drugs were dissolved in 100 μL of water and total dose (in mg) was calculated according to individual body weight (in kg).\nThe MPTP model was established using the acute regimen of four intraperitoneal (i.p.) injections of MPTP-HCl (M0896, Sigma Aldrich, 2 mg/mL in saline, 20 mg/kg for one injection) at 2-h intervals.\nMotor deficits of the MPTP-induced PD mouse model were assessed using the vertical grid test as described in the previous study [23]. Briefly, after 2 days of habituation to the testing apparatus, individual mice were gently placed 3 cm from the top, facing upward, and allowed to turn around and climb down. We also performed a coat hanger test as described [24–26]. Briefly, a mouse was gently hung on the middle of a coat hanger and allowed to ascend to the top. Performance was graded as follows: 0, falling off the hanger within 20 s; 1, moving to the side-bar of the hanger; 2, reaching the side-bar of the hanger; 3, climbing the side-bar of the hanger; 4, moving to the top of the hanger; 5, climbing and reaching the safe zone. The test was performed twice and each trial lasted a maximum of 3 min."}, "6-OHDA model rats": {"test_system": "6-OHDA model rats", "test": "6-OHDA rat model: stepping test, rotarod test, TH", "settings": "6-OHDA rats; 10 mg/kg/day for 15 days starting 17 days post-6-OHDA", "procedure": "(§1) Group allocation and outcome assessment, but not the conduct of experiments and data analysis, were performed in a blinded manner. Throughout the study, confounders were not controlled. An acclimation period of 7 days was allowed for animals to stabilize in a new environment before model induction. […] Treatment drugs were dissolved in 100 μL of water and total dose (in mg) was calculated according to individual body weight (in kg). […] An experiment was halted if body weight decreased by 20% or more after MPTP or 6-hydroxydopamine (6-OHDA) treatment.\nFinally, the 6-OHDA model was prepared as previously described [21]. Under general anesthesia, all rats received unilateral injections of 8 μg 6-OHDA (Sigma Aldrich) in 4 μL saline/0.1% ascorbic acid into the right medial forebrain bundle (AP − 2.2 mm and L + 1.5 mm relative to the bregma, V − 8.0 mm from the dura) [19], with the tooth bar set at + 4.5 mm.\nMotor deficits of 6-OHDA and A53T mutant α-synuclein model rats were assessed as previously described with slight modifications [27]. Briefly, both hind limbs and one forelimb were firmly fixed in the two hands of the experimenter, and the rat was lowered over a treadmill moving at rate of 18 cm/s such that the body remained stationary while the free forelimb was allowed to spontaneously touch the moving treadmill track for 10 s. All experimental sessions were video recorded to count the number of adjusting steps taken in the backward direction. The number of adjusting steps was averaged across four trials in each session.\nIn addition, impaired motor coordination of 6-OHDA model rats was examined using the rotarod test as previously described with slight modifications [28]. […] Before the first rotarod test, all rats were pre-trained until riding time reached 60 s at 10 rpm (B.S Technolab, Seoul, Korea). Each session consisted of two trials, and riding time was averaged to obtain pre-6-OHDA, 0d, 7d, and 15d results."}, "[4]": {"test_system": "MPTP-induced PD mouse model", "test": "MPTP mouse model: TH (DAB) and Nissl staining of SNpc and striatum", "settings": "MPTP mice; long-term treatment, 29 days before MPTP and one more day after, 10 mg/kg/day oral; 10 mg/kg/day", "procedure": "as §1\nThe MPTP model was established using the acute regimen of four intraperitoneal (i.p.) injections of MPTP-HCl (M0896, Sigma Aldrich, 2 mg/mL in saline, 20 mg/kg for one injection) at 2-h intervals. All MPTP use and safety precautions were strictly followed as described [18].\nCoronal sections for striatum and SNpc were prepared at 30-μm thickness and immunostained using a DAB staining kit (TL-060-QHD, Thermo, MA, USA). […] After washing in PBS 3 times, sections were incubated in Primary Antibody Amplifier Quanto (TA-060-QPB, Thermo) for 5 min, washed again in PBS, incubated in HRP Polymer Quanto for 1 h, washed 4 times in PBS, and dipped for 30 s in a 1:10 mixture of DAB + chromogen and DAB + substrate buffer (K3468, Dako, Denmark). Finally, sections were washed, immersed in mounting medium, and dried.\nEvery 6th section including the SN was stained with anti-TH and the number of TH-positive neurons counted under low magnification (× 10) from the rostral tip of the SNpc to the caudal end of the substantia nigra pars reticulate (SNpr). […] The total number of neurons per section was estimated according to the optical fractionator formula. The total number of SNpc neurons in a hemisphere was then obtained by multiplying the number counted using Stereo Investigator 11 by the slice interval (six).\nOther 30-μm-thick coronal sections from the SNpc were Nissl stained to assess viable cell number. Briefly, slices were stained with 0.1% cresyl violet solution for 3 min, rinsed with distilled water, and placed in a chamber filled with 70% ethanol for 1 min. […] A series of bright field images were obtained using an Olympus microscope. The slices were classified according to AP coordinates and Nissl-positive neurons counted using the counting tool of ImageJ (NIH, MD, USA)."}, "[5]": {"test": "H2O2 scavenging capacity test (Amplex red/HRP)", "settings": "10 min incubation with H2O2 at RT", "description": "To determine the H2O2 scavenging capacity of the test compound, H2O2 concentration was measured using the modified Amplex red/horseradish peroxidase (HRP) detection method as described previously. Briefly, a H2O2 solution was incubated with the test compound for 10 min at room temperature (RT), and then the reaction solution containing 20 mM Amplex red and 200 U/mL HRP was added. The absorbance was measured at 570 nm using a microplate reader. The H2O2 scavenging capacities were compared to a blank negative control and to the known H2O2 scavenger epigallocatechin gallate (EGCG) as a positive control."}},
  "data": [
    {"compound": "C[C@H](NCc1ccc(-c2ccc(OC(F)(F)F)cc2)cc1)C(N)=O", "note": "[Compound 18l]", "values": [
      {"measurement": "melting point", "result": "256 to 259", "unit": "°C"},
      {"measurement": "SI (selectivity index), IC50(MAO-A)/IC50(MAO-B)", "setting": "[1]", "result": "> 1,020"},
      {"measurement": "IC50", "setting": "[2]", "result": "> 100", "unit": "µM"}
    ]},
    {"compound": "C#CCN(C)[C@H](C)Cc1ccccc1", "note": "[selegiline, reference compound]", "values": [
      {"measurement": "vertical grid test: time to turn", "setting": "[3]", "result": "reduced"},
      {"measurement": "vertical grid test: total time", "setting": "[3]", "result": "reduced"},
      {"measurement": "stepping test: stepping behavior deficit of the contralateral forepaw", "setting": "6-OHDA model rats", "result": "did not improve"},
      {"measurement": "loss of TH-positive cells in the SNpc", "setting": "[4]", "result": "non-significant increasing tendency"}
    ]},
    {"compound": "epigallocatechin-3-gallate [EGCG, reference compound]", "values": [
      {"measurement": "H2O2 scavenging effect", "setting": "[5]", "result": "dose-dependent effect of H2O2 scavenging"}
    ]}
  ]
}
